Common to all, as to format: cell-based
In experiment [1] the target is T1, human sodium channel Nav 1.8 (Homo sapiens (Human), UniProt Q9Y5Y9). Briefly: Automated whole-cell voltage-clamp (ScreenPatch 384P), Nav 1.8 sodium current, Protocol 1. The settings on record: Protocol 1 (holding voltage -90 mV, 0.1 Hz); CHO cells expressing human Nav 1.8; room temperature; read-out: Nav1.8 IC50. Here is the method:
(§1) Biological assays were performed on Chinese hamster ovary (CHO) cells expressing the human sodium channels Nav 1.8 and Nav 1.7 stably.
(§2) The experimental voltage-clamp protocol using the whole cell configuration was established on the automated ScreenPatch® 384P platform (SP384PE, Nanion Technologies, Livingston, NJ) and recording of the results was performed with a Nanion 384-well Patch Clamp chip (NPC) (Nanion Technologies, Livingston, NJ).
(§3) Compounds of Formula (I), were diluted in eight concentrations in the extracellular solution composed of physiological saline, buffered with HEPES (mM): NaCl, 137; KCl, 4; CaCl2, 3.8; MgCl2, 1; HEPES, 10; Glucose, 10; pH 7.4. The […], 50; CsF, 90; MgCl2, 5; EGTA, 5; HEPES, 10; pH 7.2. The duration of exposure of each compound with the cells expressing Nav 1.7 or Nav 1.8 was at least five minutes and the assays were performed at room temperature.
(§4) The measurements of the sodium currents of Nav 1.8 and Nav 1.7 were obtained using the voltage protocols described below: • Protocol 1: A holding voltage of-90 mV was established followed by a voltage phase of 200 ms to-120 mV, followed by a voltage step of 10 mV for 1 second for Nav 1.8 or 0 mV for Nav 1.7, followed by a step of-100 mV for 20 ms, followed by a step of 20 ms for 10 mV for Nav 1.8 or 0 mV for Nav 1.7 (TP1A) before returning to the holding voltage of-90 mV. • Protocol 2: A holding voltage of-100 mV was established followed by an inactivation voltage step at −40 mV for 8 seconds, followed by a −100 mV step for 20 ms, followed by a 20 ms step for 10 mV for Nav 1.8 or 0 mV for Nav 1.7 (TP1A) before returning to the holding voltage of-100 mV.
(§5) Protocols were repeated at a frequency of 0.1 Hz (Protocol 1) or 0.05 Hz (Protocol 2) and current amplitude was quantified over the TP1A phase log. The variation in the peak amplitude of the current was evaluated according to the Formula described below, after exposure of the cells expressing the channels, at each concentration of the different compounds:
(§6) where ITP1A,basal, and ITP1A,molecule represent the entry peaks of sodium currents into TP1A prior to exposure to the compound and in the presence of the compound, respectively.
(§7) The decrease in peak current amplitude, after exposure of the cells to the compounds, was used to calculate the percent relative blocking of the channels relative to the positive control according to the Formula below: […]
(§8) where % V and % CP represent the averages of the values of current inhibition with a vehicle (DMSO) and positive controls, respectively. The sodium currents of the positive control were considered as 100%.
(§9) where [Test] represents the concentration of the evaluated molecule, IC50 is the concentration of the compound that generates half of the maximum inhibition, N is the Hill's coefficient and % Block′ is the percentage of the sodium channel current (Nav 1.8 and Nav 1.7) inhibited at each concentration of the evaluated molecule. Data were obtained by non linear least squares regression with XL fit for Excel (Microsoft, Redmond, WA).
(§10) Compounds were tested in at least one assay to obtain the IC50 value.

Experiment [2] has as its target T2, human sodium channel Nav 1.7 (Homo sapiens (Human), UniProt Q15858). Put plainly: Automated whole-cell voltage-clamp (ScreenPatch 384P), Nav 1.7 sodium current, Protocol 1. The settings on record: Protocol 1 (holding voltage -90 mV, 0.1 Hz); CHO cells expressing human Nav 1.7; room temperature; read-out: Nav1.7 IC50. How it is done:
as §1, §2, §3, §4, §5, §6, §7, §8, §9, §10

Experiment [3] addresses T2, human sodium channel Nav 1.7. Briefly: Automated whole-cell voltage-clamp (ScreenPatch 384P), Nav 1.7 sodium current, Protocol 2. The note with it: read-out: Nav1.7 IC50. The essentials:
(§11)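 CHO cells stably expressing human Nav1.7 or Nav1.8, automated whole-cell clamp, room temperature, ≥5 min exposure at eight concentrations. Protocol 1: hold −90 mV, 0.1 Hz, test pulse 0 mV (Nav1.7) or 10 mV (Nav1.8). Protocol 2: hold −100 mV with 8 s −40 mV inactivating step, 0.05 Hz. IC50 from Hill fit of TP1A peak-current block, normalized to vehicle and positive control.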

The target in experiment [4] is T1, human sodium channel Nav 1.8. Briefly: Automated whole-cell voltage-clamp (ScreenPatch 384P), Nav 1.8 sodium current, Protocol 2. The note with it: read-out: Nav1.8 IC50. An outline of the steps:
as §11

Results on 25 molecules are retold here after patent US20240335442A1 (Eurofarma Laboratórios S.A., priority 2021, published 2024).

SMILES strings stand for the structures. Bounds are passed on as bounds.

T2 sequence (Q15858 whole entry): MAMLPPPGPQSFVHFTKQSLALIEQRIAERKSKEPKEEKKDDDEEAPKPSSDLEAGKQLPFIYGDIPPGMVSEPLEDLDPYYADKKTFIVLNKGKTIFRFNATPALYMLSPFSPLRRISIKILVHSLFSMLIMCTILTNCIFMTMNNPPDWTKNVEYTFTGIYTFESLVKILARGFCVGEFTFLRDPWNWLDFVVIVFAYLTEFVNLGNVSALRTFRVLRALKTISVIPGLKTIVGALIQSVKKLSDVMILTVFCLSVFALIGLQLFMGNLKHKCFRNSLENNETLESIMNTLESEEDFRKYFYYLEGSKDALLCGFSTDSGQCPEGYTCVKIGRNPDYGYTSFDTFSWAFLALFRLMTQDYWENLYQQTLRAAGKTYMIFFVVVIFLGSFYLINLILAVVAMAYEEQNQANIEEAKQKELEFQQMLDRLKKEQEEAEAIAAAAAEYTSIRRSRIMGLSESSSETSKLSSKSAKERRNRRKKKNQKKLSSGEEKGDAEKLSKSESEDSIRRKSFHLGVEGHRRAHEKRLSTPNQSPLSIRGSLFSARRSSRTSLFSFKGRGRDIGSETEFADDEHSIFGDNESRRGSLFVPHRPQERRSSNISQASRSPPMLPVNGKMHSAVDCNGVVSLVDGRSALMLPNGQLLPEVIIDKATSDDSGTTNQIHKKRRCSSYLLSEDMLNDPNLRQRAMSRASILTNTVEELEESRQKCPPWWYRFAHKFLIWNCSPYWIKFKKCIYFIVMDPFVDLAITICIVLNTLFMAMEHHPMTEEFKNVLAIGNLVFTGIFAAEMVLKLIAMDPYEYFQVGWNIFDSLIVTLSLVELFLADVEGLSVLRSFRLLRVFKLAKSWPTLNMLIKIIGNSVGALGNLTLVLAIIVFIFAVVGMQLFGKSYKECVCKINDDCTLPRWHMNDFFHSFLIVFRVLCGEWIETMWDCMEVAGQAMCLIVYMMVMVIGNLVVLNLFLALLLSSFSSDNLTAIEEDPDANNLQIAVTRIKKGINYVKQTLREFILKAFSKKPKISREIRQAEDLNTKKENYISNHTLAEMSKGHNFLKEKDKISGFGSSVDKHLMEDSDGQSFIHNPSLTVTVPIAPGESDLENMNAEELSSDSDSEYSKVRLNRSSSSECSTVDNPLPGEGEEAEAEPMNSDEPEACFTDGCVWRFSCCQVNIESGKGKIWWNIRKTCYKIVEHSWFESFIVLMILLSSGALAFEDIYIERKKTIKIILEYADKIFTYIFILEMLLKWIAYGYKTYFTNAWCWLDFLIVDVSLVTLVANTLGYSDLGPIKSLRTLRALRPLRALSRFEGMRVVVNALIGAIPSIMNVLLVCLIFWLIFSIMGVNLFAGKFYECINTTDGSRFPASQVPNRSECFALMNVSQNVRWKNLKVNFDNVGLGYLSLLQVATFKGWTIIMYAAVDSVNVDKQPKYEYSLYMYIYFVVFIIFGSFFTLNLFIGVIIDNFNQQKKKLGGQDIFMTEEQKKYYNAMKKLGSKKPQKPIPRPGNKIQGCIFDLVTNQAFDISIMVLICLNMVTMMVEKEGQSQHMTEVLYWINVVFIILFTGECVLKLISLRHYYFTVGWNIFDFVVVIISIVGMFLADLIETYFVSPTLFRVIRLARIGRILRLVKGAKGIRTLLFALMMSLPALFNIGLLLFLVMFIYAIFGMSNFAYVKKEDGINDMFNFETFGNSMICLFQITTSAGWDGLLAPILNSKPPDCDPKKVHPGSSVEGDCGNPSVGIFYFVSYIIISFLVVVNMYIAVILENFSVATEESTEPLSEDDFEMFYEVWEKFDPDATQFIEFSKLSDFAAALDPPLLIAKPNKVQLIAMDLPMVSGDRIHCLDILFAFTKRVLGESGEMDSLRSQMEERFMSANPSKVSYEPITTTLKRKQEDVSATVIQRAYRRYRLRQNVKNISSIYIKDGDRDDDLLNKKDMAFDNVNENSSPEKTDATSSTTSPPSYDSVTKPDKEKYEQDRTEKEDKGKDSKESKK
T1 sequence (Q9Y5Y9 whole entry): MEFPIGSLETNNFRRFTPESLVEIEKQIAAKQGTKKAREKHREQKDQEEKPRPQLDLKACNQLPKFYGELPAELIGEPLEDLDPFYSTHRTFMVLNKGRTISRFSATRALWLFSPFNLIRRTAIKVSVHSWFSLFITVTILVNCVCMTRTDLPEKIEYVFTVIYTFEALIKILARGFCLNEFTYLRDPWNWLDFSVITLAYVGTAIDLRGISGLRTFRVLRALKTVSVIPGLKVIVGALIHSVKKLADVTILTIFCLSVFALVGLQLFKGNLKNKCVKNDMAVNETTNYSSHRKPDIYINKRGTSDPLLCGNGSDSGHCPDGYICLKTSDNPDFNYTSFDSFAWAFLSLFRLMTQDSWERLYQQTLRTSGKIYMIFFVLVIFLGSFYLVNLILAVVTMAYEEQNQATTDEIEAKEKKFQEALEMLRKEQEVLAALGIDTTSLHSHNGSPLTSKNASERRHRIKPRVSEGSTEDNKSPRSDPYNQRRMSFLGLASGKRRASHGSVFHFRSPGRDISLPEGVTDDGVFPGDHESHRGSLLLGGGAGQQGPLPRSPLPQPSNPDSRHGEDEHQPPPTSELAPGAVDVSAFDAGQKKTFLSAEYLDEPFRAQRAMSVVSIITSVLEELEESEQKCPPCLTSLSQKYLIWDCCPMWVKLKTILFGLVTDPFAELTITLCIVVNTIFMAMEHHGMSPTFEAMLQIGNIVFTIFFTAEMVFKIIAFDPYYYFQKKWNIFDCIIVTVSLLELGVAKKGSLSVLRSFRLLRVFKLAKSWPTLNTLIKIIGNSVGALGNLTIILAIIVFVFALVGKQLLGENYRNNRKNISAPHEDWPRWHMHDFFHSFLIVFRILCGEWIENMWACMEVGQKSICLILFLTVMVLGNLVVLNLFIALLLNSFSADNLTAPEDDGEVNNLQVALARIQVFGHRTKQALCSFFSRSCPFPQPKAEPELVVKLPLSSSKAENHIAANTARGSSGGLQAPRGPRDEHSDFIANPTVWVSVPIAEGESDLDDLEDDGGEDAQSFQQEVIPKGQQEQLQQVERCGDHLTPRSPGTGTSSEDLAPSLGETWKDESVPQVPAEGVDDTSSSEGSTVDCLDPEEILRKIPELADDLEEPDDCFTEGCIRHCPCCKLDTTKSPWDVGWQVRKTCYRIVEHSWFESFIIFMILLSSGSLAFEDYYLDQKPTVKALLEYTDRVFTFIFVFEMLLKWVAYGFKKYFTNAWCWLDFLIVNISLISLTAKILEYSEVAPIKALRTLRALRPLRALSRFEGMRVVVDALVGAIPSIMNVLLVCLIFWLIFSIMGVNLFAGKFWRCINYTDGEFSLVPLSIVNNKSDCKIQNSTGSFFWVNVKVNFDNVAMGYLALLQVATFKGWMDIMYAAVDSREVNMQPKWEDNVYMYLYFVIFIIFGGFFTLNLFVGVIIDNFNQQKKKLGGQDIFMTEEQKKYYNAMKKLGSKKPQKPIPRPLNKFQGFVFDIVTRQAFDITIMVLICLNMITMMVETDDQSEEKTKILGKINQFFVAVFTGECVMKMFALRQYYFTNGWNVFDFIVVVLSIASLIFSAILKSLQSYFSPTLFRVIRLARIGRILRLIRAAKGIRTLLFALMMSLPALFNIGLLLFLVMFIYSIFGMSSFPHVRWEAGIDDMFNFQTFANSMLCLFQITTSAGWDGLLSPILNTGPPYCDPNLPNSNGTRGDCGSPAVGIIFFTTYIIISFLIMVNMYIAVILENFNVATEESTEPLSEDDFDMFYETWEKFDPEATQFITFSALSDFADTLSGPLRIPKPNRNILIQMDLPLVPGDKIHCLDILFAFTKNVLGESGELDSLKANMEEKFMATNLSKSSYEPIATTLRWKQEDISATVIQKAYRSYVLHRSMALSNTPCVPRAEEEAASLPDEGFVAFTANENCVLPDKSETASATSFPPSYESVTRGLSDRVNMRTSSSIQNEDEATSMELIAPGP

For the molecule `CCOc1ccc(-c2cncc(C(=O)N/N=C/c3cc(OC)cc(OCCN(C)C)c3)n2)cc1` [Compound 4, (E)-N′-(3-(2-(dimethylamino)ethoxy)-5-methoxybenzylidene)-6-(4-ethoxyphenyl)pyrazine-2-carbohydrazide], the IC50 in experiment [1] amounted to 6020 nM; in experiment [2] it was 6660 nM.

`CCOc1ccc(-c2cncc(C(=O)N/N=C/c3cc(OC)cc4ncoc34)n2)cc1` [Compound 5, (E)-6-(4-ethoxyphenyl)-N′-((5-methoxybenzo[d]oxazol-7-yl)methylene)pyrazine-2-carbohydrazide]: the IC50 is 5630 nM in experiment [1] and greater than 10000 nM in experiment [2].

As for `CCOc1ccc(-c2cncc(C(=O)N/N=C/c3cncc(OC)c3)n2)cc1` [Compound 8, (E)-6-(4-ethoxyphenyl)-N′-((5-methoxypyridin-3-yl)methylene)pyrazine-2-carbohydrazide], the IC50 in experiment [1] and in experiment [2] was greater than 10000 nM each time.

Turning to `CCOc1ccc(-c2cncc(C(=O)N/N=C/c3cc(OC)ccn3)n2)cc1` [Compound 9, (E)-6-(4-ethoxyphenyl)-N′-((4-methoxypyridin-2-yl)methylene)pyrazine-2-carbohydrazide], the IC50 in experiment [1] was 9770 nM; in experiment [2], greater than 10000 nM.

Regarding `CCOc1ccc(-c2cncc(C(=O)N/N=C/c3cccc(OC)n3)n2)cc1` [Compound 11, (E)-6-(4-ethoxyphenyl)-N′-((6-methoxypyridin-2-yl)methylene)pyrazine-2-carbohydrazide], the IC50 in experiment [1] came out at 3230 nM; in experiment [2] it was 4520 nM.

For `CCOc1ccc(-c2cncc(C(=O)N/N=C/c3ccc(OC)cc3)n2)cc1` [Compound 23, (E)-6-(4-ethoxyphenyl)-N′-(4-methoxybenzylidene)pyrazine-2-carbohydrazide], the 50% inhibitory concentration (IC50) came to 1900 nM in experiment [1] and 697 nM in experiment [2].

With `COc1ccc(-c2cncc(C(=O)N/N=C/C3CCCCCC3)n2)cc1` [Compound 181, (E)-N′-(cycloheptylmethylene)-6-(4-methoxyphenyl)pyrazine-2-carbohydrazide], the IC50 in experiment [3] is 6410 nM; in experiment [4] it was 320 nM.

For the molecule `CCOc1ccc(-c2cncc(C(=O)N/N=C/C3CCCCCC3)n2)cc1` [Compound 182, (E)-N′-(cycloheptylmethylene)-6-(4-ethoxyphenyl)pyrazine-2-carbohyrazide], the IC50 in experiment [3] was greater than 10000 nM; in experiment [4], 300 nM.

With `CC(C)Oc1ccc(-c2cncc(C(=O)N/N=C/C3CCCCCC3)n2)cc1` [Compound 183, (E)-N′-(cycloheptylmethylene)-6-(4-isopropoxyphenyl)pyrazine-2-carbohyazide], the IC50 in experiment [3] came out at 256 nM; in experiment [4], 231 nM.

With `COc1cc(/C=N/NC(=O)c2cncc(-c3ccc(OC)nc3)n2)cc(OC)c1` [Compound 184, (E)-N′-(3,5-dimethoxybenzylidene)-6-(6-methoxypyridin-3-yl)pyrazine-2-carbohydrazide], the IC50 in experiment [3] is greater than 10000 nM; in experiment [4] it was 398 nM.

As for `CCOc1ccc(-c2cncc(C(=O)N/N=C/c3cc(OC)cc(OC)c3)n2)c(C(F)(F)F)c1` [Compound 187], the IC50 in experiment [3] came to 219 nM; in experiment [4], 496 nM.

Turning to `CCOc1ccc(-c2cncc(C(=O)N/N=C/c3ccc(C(=O)NS(C)(=O)=O)cc3)n2)cc1` [Compound 188, (E)-4-((2-(6-(4-ethoxyphenyl)pyrazine-2-carbonyl)hydrazinalidene)methyl)-N-(methylsulfonyl)benzamide], the figures for the IC50 in experiment [3] and in experiment [4] were greater than 10000 nM and greater than 1000 nM, respectively.

`COc1cc(/C=N/NC(=O)c2cncc(-c3ccc(C(=O)NS(C)(=O)=O)cc3)n2)cc(OC)c1` [Compound 190, (E)-4-(6-(2-(3,5-dimethoxybenzylidene)hydrazine-1-carbonyl)pyrazin-2-yl)-N-(methylsulfonyl)benzamide]: the values for the IC50 in experiment [3] and in experiment [4] were greater than 10000 nM and greater than 1000 nM, respectively.

On to `CCOc1ccc(-c2cncc(C(=O)N/N=C/c3ccccc3CS(C)(=O)=O)n2)cc1` [Compound 191, (E)-6-(4-ethoxyphenyl)-N′-(2-((methylsulfonyl)methyl)benzylidene)pyrazine-2-carbohydrazide], for which the concentration for half-maximal inhibition (IC50) in experiment [3] is 3200 nM; in experiment [4], greater than 1000 nM.

For the molecule `CCOc1ccc(-c2cncc(C(=O)N/N=C/c3ccccc3S(C)(=O)=O)n2)cc1` [Compound 192], the IC50 in experiment [3] amounted to 7220 nM; in experiment [4], 952 nM.

As to `CCOc1ccc(-c2cncc(C(=O)N/N=C/c3ccccc3NS(C)(=O)=O)n2)cc1` [Compound 193, (E)-N-(2-((2-(6-(4-ethoxyphenyl)pyrazine-2-carbonyl)hydrazinalidene)methyl)phenyl)methanesulfonamide], the IC50 was greater than 10000 nM in experiment [3] and greater than 1000 nM in experiment [4].

For the molecule `CC1=C(/C=N/NC(=O)c2cncc(-c3ccc(OC(C)C)cc3)n2)CCCC1` [Compound 199, (E)-6-(4-isopropoxyphenyl)-N′-((2-methylcyclohept-1-en-1-yl)methylene)pyrazine-2-carbohydrzide], the IC50 was 1740 nM in experiment [3] and 166 nM in experiment [4].

`COc1ccc(-c2cncc(C(=O)N/N=C/C3=C(C)CCCCC3)n2)cc1` [Compound 200]: the figures for the IC50 in experiment [3] and in experiment [4] were 2650 nM and 129 nM, respectively.

Consider `CC1=C(/C=N/NC(=O)c2cncc(-c3ccc(OC(C)C)cc3)n2)CCCCC1` [Compound 202, (E)-6-(4-isopropoxyphenyl)-N′-((2-methylcyclohept-1-en-1-yl)methylene)pyrazine-2-carbohydrazide], for which the IC50 in experiment [3] is 107 nM; in experiment [4], 93 nM.

Consider `CCOc1ccc(-c2nc(C(=O)N/N=C/c3cc(OC)cc(OC)c3)cnc2N)cc1` [Compound 206, (E)-5-amino-N′-(3,5-dimethoxybenzylidene)-6-(4-ethoxyphenyl)pyrazine-2-carbohydrazide], for which the values for the IC50 in experiment [3] and in experiment [4] were greater than 10000 nM and greater than 1000 nM, respectively.

As for `CCOc1ccc(-c2nc(C(=O)N/N=C/c3cc(OC)cc(OC)c3)cnc2Cl)cc1` [Compound 209, (E)-5-chloro-N′-(3,5-dimethoxybenzylidene)-6-(4-ethoxyphenyl)pyrazine-2-carbohydrazide], the IC50 was determined as 2470 nM in experiment [3] and 189 nM in experiment [4].

On to `CCOc1ccc(-c2nc(C(=O)N/N=C/c3cc(OC)cc(OC)c3)cnc2C(F)(F)F)cc1` [Compound 210, (E)-N′-(3,5-dimethoxybenzylidene)-6-(4-ethoxyphenyl)-5-(trifluoromethyl)pyrazine-2-carbohydrazide], for which the IC50 in experiment [3] is greater than 10000 nM; in experiment [4], 680 nM.

With `CCOc1ccc(-c2nc(C(=O)N/N=C/c3cc(OC)cc(OC)c3)cnc2OCC)cc1` [Compound 212, (E)-N′-(3,5-dimethoxybenzylidene)-5-ethoxy-6-(4-ethoxyphenyl)pyrazine-2-carbohydrazide], the figures for the IC50 in experiment [3] and in experiment [4] were greater than 10000 nM and greater than 1000 nM, respectively.

With `CCOc1cc(C)c(-c2cncc(C(=O)N/N=C/c3cccc(OC)c3)n2)c(C)c1` [Compound 213, (E)-6-(4-ethoxy-2,6-diemthylphenyl)-N′-(3-methoxybenzylidene)pyrazine-2-carbohydrazide], the results for the IC50 in experiment [3] and in experiment [4] were greater than 10000 nM and greater than 1000 nM, respectively.

Turning to `CCOc1ccc(-c2cncc(C(=O)N/N=C/c3cc(CCO)cc(OC)c3)n2)cc1` [Compound 214], the IC50 is greater than 10000 nM in experiment [3] and greater than 1000 nM in experiment [4].

As usually defined, the IC50 is the concentration that inhibits the measured activity by half.
